What was measured:
[1] = system: HT29 cells, phospho-ERK1/2 western blot, 24 h; test: phospho-ERK1/2 level change, either direction, late-stage follow-up, counter-screen for KLF5 inhibitor project, HT29 cells, chemiluminescent western blot, powder samples (AID 588655); conditions: measured here: phospho-ERK fold change vs DMSO; at 10 µM
[2] = target: Mitogen-activated protein kinase 1 (Homo sapiens) (UniProt P28482); test: as above; conditions: HT29 cells, phospho-ERK1/2 western blot, 24 h; at 10 µM; stronger effect = higher value
Chain of Mitogen-activated protein kinase 1 (Homo sapiens) (P28482 whole entry, looked up): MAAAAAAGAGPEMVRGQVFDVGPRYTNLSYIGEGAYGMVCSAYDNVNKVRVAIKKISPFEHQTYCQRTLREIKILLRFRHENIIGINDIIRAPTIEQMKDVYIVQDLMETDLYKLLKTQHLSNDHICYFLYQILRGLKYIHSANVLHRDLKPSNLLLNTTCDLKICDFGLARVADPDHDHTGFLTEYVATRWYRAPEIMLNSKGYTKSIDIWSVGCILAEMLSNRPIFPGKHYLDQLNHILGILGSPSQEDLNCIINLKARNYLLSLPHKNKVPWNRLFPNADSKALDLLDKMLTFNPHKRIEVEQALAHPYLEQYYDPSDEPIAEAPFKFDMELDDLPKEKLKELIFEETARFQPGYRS

Structure (SMILES) | fold change [1] | phospho-ERK1/2 band inhibition vs DMSO (stronger effect = higher value) [2] [%]
CN(C(=O)CNC(=O)/C=C/c1cccc(Cl)c1)C1CCS(=O)(=O)CC1 | -2.02 | 50.5
CN(C(=O)CNC(=O)/C=C/c1cccc(Cl)c1)C1CCS(=O)(=O)C1 (stereo unspecified) | -1.52 | 34.3
CN(C(=O)COC(=O)/C=C/c1cccc([N+](=O)[O-])c1)C1CCS(=O)(=O)C1 (stereo unspecified) | -1.63 | 38.6

— PubChem BioAssay AID588655 (The Scripps Research Institute Molecular Screening Center, 2011)
